Consider 40 compounds from US20120029190A1, “COMPOUNDS FOR TREATING DISORDERS MEDIATED BY METABOTROPIC GLUTAMATE RECEPTOR 5, AND METHODS OF USE THEREOF” (priority 2009, published 2012).

T1 sequence (P41594 21-1212): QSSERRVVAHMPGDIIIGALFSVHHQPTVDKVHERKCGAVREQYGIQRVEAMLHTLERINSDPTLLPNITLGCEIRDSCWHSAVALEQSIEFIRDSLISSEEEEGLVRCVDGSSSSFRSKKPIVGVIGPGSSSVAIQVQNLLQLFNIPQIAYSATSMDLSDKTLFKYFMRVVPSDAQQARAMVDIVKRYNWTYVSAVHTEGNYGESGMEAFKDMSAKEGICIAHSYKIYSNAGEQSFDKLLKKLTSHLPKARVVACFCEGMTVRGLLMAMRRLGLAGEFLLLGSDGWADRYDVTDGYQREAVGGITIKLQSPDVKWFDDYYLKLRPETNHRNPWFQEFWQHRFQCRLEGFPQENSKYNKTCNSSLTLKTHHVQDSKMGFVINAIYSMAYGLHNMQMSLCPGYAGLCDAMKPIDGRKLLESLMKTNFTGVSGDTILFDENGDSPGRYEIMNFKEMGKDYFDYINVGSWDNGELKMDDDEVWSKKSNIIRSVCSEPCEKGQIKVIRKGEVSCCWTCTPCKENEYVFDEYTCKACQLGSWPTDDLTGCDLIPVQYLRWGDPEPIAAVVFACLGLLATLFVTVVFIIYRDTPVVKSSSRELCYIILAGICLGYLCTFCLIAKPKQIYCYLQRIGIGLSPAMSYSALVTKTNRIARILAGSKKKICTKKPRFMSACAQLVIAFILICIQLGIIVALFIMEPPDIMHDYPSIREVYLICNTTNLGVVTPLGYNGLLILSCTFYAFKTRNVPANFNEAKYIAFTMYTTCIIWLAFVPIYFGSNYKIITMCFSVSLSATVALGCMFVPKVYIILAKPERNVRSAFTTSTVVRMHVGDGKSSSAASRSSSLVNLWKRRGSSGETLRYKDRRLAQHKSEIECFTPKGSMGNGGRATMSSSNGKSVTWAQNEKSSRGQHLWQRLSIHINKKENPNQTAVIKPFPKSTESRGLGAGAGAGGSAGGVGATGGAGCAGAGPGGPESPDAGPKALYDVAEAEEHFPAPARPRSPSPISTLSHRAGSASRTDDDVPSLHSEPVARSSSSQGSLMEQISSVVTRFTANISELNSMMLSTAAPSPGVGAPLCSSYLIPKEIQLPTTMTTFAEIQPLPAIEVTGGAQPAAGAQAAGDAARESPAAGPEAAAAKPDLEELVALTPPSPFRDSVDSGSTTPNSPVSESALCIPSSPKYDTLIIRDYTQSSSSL

One test has as its target T1, human recombinant mGluR5 receptor (Homo sapiens, UniProt P41594).
T1 construct: expressed in transfected cells; expression induced with doxycycline
Briefly: mGluR5 in vitro functional assay (aequorin cell line, inhibition of glutamate EC80 response). The format is cell-based. As to conditions: Table 1; aequorin cell line expressing human mGluR5, reference agonist glutamate at EC80; obtained in duplicate; read-out: IC50. The method in brief:
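Doxycycline-induced (600 ng/mL, 18 h) aequorin cells loaded with coelenterazine h ≥4 h at room temperature; compound preincubated 3 min before glutamate at EC80. Luminescence recorded, normalized to digitonin or 20 mM ATP wells; % inhibition of EC80 response fitted by sigmoidal nonlinear regression.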
Broadly, the IC50 is the concentration at which inhibition is half-maximal. Regarding `Clc1cccc(N2CCCc3oc(-c4ccccn4)nc3C2)c1` [Compound 102, 5-(3-Chlorophenyl)-2-(pyridin-2-yl)-5,6,7,8-tetrahydro-4H-oxazolo[4,5-c]azepine], the IC50 is under 1000 nM. Still for that read-out and setting: the same measure for `COc1cccc(N2CCCc3oc(-c4ccccn4)nc3C2)n1` [Compound 103, 5-(6-Methoxypyridin-2-yl)-2-(pyridin-2-yl)-5,6,7,8-tetrahydro-4H-oxazolo[4,5-c]azepine]: under 1000 nM; for `Fc1cncc(N2CCCc3oc(-c4ccccn4)nc3C2)c1` [Compound 104, 5-(5-Fluoropyridin-3-yl)-2-(pyridin-2-yl)-5,6,7,8-tetrahydro-4H-oxazolo[4,5-c]azepine]: under 1000 nM; for `N#Cc1cc(F)cc(N2CCc3nc(-c4ccccn4)sc3C2)c1` [Compound 105, 3-Fluoro-5-(2-(pyridin-2-yl)-6,7-dihydro-thiazolo[5,4-c]pyridin-5(4H)-yl)benzonitrile]: under 10000 nM. For the compound `Clc1cccc(-c2cn3c(n2)CN(c2cccnc2)CC3)c1` [Compound 106, 2-(3-Chlorophenyl)-7-(pyridin-3-yl)-5,6,7,8-tetrahydroimidazo[1,2-a]pyrazine], the IC50 is under 10000 nM.

`Clc1cccc(-c2cn3c(n2)CN(c2ccccn2)CC3)c1` [Compound 107, 2-(3-Chlorophenyl)-7-(pyridin-2-yl)-5,6,7,8-tetrahydroimidazol[1,2-a]pyrazine]: the IC50 is under 10000 nM. Same read-out and setting: the same measure for `N#Cc1cccnc1N1CCn2cc(-c3cccc(Cl)c3)nc2C1` [Compound 108, 2-(2-(3-Chlorophenyl)-5,6-dihydroimidazo[1,2-a]pyrazin-7(8H)-yl)nicotinotrile]: under 10000 nM; for `N#Cc1cc(F)cc(N2CCn3cc(-c4ccccn4)nc3C2)c1` [Compound 109, 3-Fluoro-5-(2(pyridin-2-yl)-5,6-dihydroimidazo-[1,2-a]pyrazin-7(8H)-yl)benzonitrile]: under 1000 nM. Still for that read-out and setting: the same measure for `N#Cc1cccc(N2CCn3cc(-c4ccccn4)nc3C2)c1` [Compound 110, 3-(2(Pyridin-2-yl)-5,6-dihydroimidazo[1,2-a]pyrazin-7(8H)-yl)benzonitrile]: under 1000 nM. On the same count and under the same terms, the same measure for `N#Cc1cc(F)cc(N2CCc3nc(-c4ccccn4)[nH]c3C2)c1` [Compound 111, 3-Fluoro-5-(2-(pyridin-2-yl)-6,7-dihydro-3H-imidazo[4,5-c]pyridin-5(4H)-yl)benzonitrile]: over 10000 nM; for `N#Cc1cc(F)cc(N2CCn3nc(-c4ccccn4)nc3C2)c1` [Compound 112, 3-Fluoro-5-(2-(pyridin-2-yl)-5,6-dihydro-[1,2,4]triazolo[1,5-a]pyrazin-7(8H)-yl)benzonitrile]: under 1000 nM; for `Clc1cccc(N2CCn3nc(-c4ccccn4)nc3C2)c1` [Compound 113, 7-(3-Chlorophenyl)-2-(pyridin-2-yl)-5,6,7,8-tetrahydro-[1,2,4]triazolo[1,5-a]pyrazine]: under 1000 nM.

On to `Fc1cccc(N2CCn3nc(-c4ccccn4)nc3C2)c1` [Compound 114, 7-(3-Fluorophenyl)-2-(pyridin-2-yl)-5,6,7,8-tetrahydro-[1,2,4]triazolo[1,5-a]pyrazine], for which the IC50 was under 1000 nM.

Staying with this test, now noted: Table 2; aequorin cell line expressing human mGluR5, reference agonist glutamate at EC80; obtained in duplicate; read-out: IC50.
For the compound `Clc1cccc(N2CCc3oc(-c4ccccn4)nc3C2)c1` [Compound 115, 5-(3-chlorophenyl)-2-(pyridin-2-yl)-4,5,6,7-tetrahydrooxazolo[4,5-c]pyridine], the IC50 is under 1000 nM.

Turning to `Fc1cccc(N2CCc3oc(-c4ccccn4)nc3C2)c1` [Compound 116, 5-(3-fluorophenyl)-2-(pyridin-2-yl)-4,5,6,7-tetrahydrooxazolo[4,5-c]pyridine], the IC50 was under 1000 nM. The same measure, in the same setting: the same measure for `N#Cc1cc(F)cc(N2CCc3oc(-c4ccncn4)nc3C2)c1` [Compound 118, 3-fluoro-5-(2-(pyrimidin-4-yl)-6,7-dihydrooxazolo[4,5-c]pyridin-5(4H)-yl)benzonitrile]: under 1000 nM; for `Fc1cccc(N2CCc3oc(-c4ccncn4)nc3C2)c1` [Compound 119, 5-(3-fluorophenyl)-2-(pyrimidin-4-yl)-4,5,6,7-tetrahydrooxazolo[4,5-c]pyridine]: under 10000 nM; for `Clc1cccc(N2CCc3oc(-c4ccncn4)nc3C2)c1` [Compound 120, 5-(3-chlorophenyl)-2-(pyrimidin-4-yl)-4,5,6,7-tetrahydrooxazolo[4,5-c]pyridine]: under 10000 nM. On the same count and under the same terms, the same measure for `Cc1cccnc1-c1nc2c(o1)CCN(c1cc(F)cc(C#N)c1)C2` [Compound 121, 3-fluoro-5-(2-(3-methylpyridin-2-yl)-6,7-dihydrooxazolo[4,5-c]pyridin-5(4H)-yl)benzonitrile]: under 10000 nM. As for `Cc1cccnc1-c1nc2c(o1)CCN(c1cccc(F)c1)C2` [Compound 122, 5-(3-fluorophenyl)-2-(3-methylpyridin-2-yl)-4,5,6,7-tetrahydrooxazolo[4,5-c]pyridine], the IC50 was over 10000 nM. `Cc1cccnc1-c1nc2c(o1)CCN(c1cccc(Cl)c1)C2` [Compound 123, 5-(3-chlorophenyl)-2-(3-methylpyridin-2-yl)-4,5,6,7-tetrahydrooxazolo[4,5-c]pyridine]: the IC50 is over 10000 nM.

Regarding `Fc1ccc(-c2nc3c(o2)CCN(c2cccc(F)c2)C3)nc1` [Compound 124, 5-(3-fluorophenyl)-2-(5-fluoropyridin-2-yl)-4,5,6,7-tetrahydrooxazolo[4,5-c]pyridine], the IC50 is under 1000 nM. On the same count and under the same terms, the same measure for `Fc1ccc(-c2nc3c(o2)CCN(c2cccc(Cl)c2)C3)nc1` [Compound 125, 5-(3-chlorophenyl)-2-(5-fluoropyridin-2-yl)-4,5,6,7-tetrahydrooxazolo[4,5-c]pyridine]: under 1000 nM; for `c1ccc(N2CCc3oc(-c4ccccn4)nc3C2)cc1` [Compound 126, 5-phenyl-2-(pyridin-2-yl)-4,5,6,7-tetrahydrooxazolo[4,5-c]pyridine]: under 1000 nM; for `COc1cccc(N2CCc3oc(-c4ccccn4)nc3C2)c1` [Compound 127, 5-(3-methoxyphenyl)-2-(pyridin-2-yl)-4,5,6,7-tetrahydrooxazolo[4,5-c]pyridine]: under 1000 nM. Same read-out and setting: the same measure for `c1ccc(-c2nc3c(o2)CCN(c2cncnc2)C3)nc1` [Compound 131, 2-(pyridin-2-yl)-5-(pyrimidin-5-yl)-4,5,6,7-tetrahydrooxazolo[4,5-c]pyridine]: under 10000 nM. On the same count and under the same terms, the same measure for `c1ccc(-c2nc3c(o2)CCN(c2ncccn2)C3)nc1` [Compound 132, 2-(pyridin-2-yl)-5-(pyrimidin-2-yl)-4,5,6,7-tetrahydrooxazolo[4,5-c]pyridine]: under 10000 nM; for `Fc1ccc(-c2nc3c(o2)CCCN(c2cccc(F)c2)C3)nc1` [Compound 133, 5-(3-fluorophenyl)-2-(5-fluoropyridin-2-yl)-5,6,7,8-tetrahydro-4H-oxazolo[4,5-c]azepine]: under 1000 nM.

With `Fc1ccc(-c2nc3c(o2)CCCN(c2cccc(Cl)c2)C3)nc1` [Compound 134, 5-(3-chlorophenyl)-2-(5-fluoropyridin-2-yl)-5,6,7,8-tetrahydro-4H-oxazolo[4,5-c]azepine], the IC50 was under 1000 nM. The same measure, in the same setting: the same measure for `N#Cc1cc(F)cc(N2CCCc3oc(-c4ccc(F)cn4)nc3C2)c1` [Compound 135, 3-fluoro-5-(2-(5-fluoropyridin-2-yl)-7,8-dihydro-4H-oxazolo[4,5-c]azepin-5(6H)-yl)benzonitrile]: under 1000 nM; for `Fc1cccc(N2CCCc3oc(-c4ccncn4)nc3C2)c1` [Compound 136, 5-(3-fluorophenyl)-2-(pyrimidin-4-yl)-5,6,7,8-tetrahydro-4H-oxazolo[4,5-c]azepine]: under 1000 nM; for `Clc1cccc(N2CCCc3oc(-c4ccncn4)nc3C2)c1` [Compound 137, 5-(3-chlorophenyl)-2-(pyrimidin-4-yl)-5,6,7,8-tetrahydro-4H-oxazolo[4,5-c]azepine]: under 1000 nM.

With `N#Cc1cc(F)cc(N2CCCc3oc(-c4ccncn4)nc3C2)c1` [Compound 138, 3-fluoro-5-(2-(pyrimidin-4-yl)-7,8-dihydro-4H-oxazolo[4,5-c]azepin-5(6H)-yl)benzonitrile], the IC50 was under 1000 nM. The same measure, in the same setting: the same measure for `Fc1cccc(N2CCCc3oc(-c4cnccn4)nc3C2)c1` [Compound 139, 5-(3-fluorophenyl)-2-(pyrazin-2-yl)-5,6,7,8-tetrahydro-4H-oxazolo[4,5-c]azepine]: under 10000 nM.

As to `Clc1cccc(N2CCCc3oc(-c4cnccn4)nc3C2)c1` [Compound 140, 5-(3-chlorophenyl)-2-(pyrazin-2-yl)-5,6,7,8-tetrahydro-4H-oxazolo[4,5-c]azepine], the IC50 is under 10000 nM.

For the compound `N#Cc1cc(F)cc(N2CCCc3oc(-c4cnccn4)nc3C2)c1` [Compound 141, 3-fluoro-5-(2-(pyrazin-2-yl)-7,8-dihydro-4H-oxazolo[4,5-c]azepin-5(6H)-yl)benzonitrile], the IC50 was under 1000 nM.

In the case of `Fc1ccc(N2CCCc3oc(-c4ccccn4)nc3C2)cc1Cl` [Compound 144, 5-(3-chloro-4-fluorophenyl)-2-(pyridin-2-yl)-5,6,7,8-tetrahydro-4H-oxazolo[4,5-c]azepine], the IC50 was under 1000 nM. For the compound `Cc1nc(-c2nc3c(o2)CCCN(c2cc(F)cc(C#N)c2)C3)cs1` [Compound 145, 3-fluoro-5-(2-(2-methylthiazol-4-yl)-7,8-dihydro-4H-oxazolo[4,5-c]azepin-5(6H)-yl)benzonitrile], the IC50 is under 1000 nM. For `Fc1ccc(N2CCc3oc(-c4ccccn4)nc3C2)cc1Cl` [Compound 146, 5-(3-chloro-4-fluorophenyl)-2-(pyridin-2-yl)-4,5,6,7-tetrahydrooxazolo[4,5-c]pyridine], the IC50 was under 1000 nM. With `N#Cc1cccc(N2CCc3nc(-c4ccccc4)oc3C2)c1` [Compound 148, 3-(2-Phenyl-6,7-dihydrooxazolo[5,4-c]pyridin-5(4H)-yl)benzonitrile], the 50% inhibitory concentration (IC50) was under 10000 nM.
